Source: patent publication EP0725790B1, “SUBSTITUTED TETRA- AND PENTAPEPTIDE INHIBITORS OF PROTEIN:FARNESYL TRANSFERASE” (PARKE DAVIS & COMPANY, priority 1993, dated 1995)
Non-standard residues stand in square brackets, D forms with d. Residues, ends and D or L forms follow the SMILES beside them. *: point of attachment. pY = N[C@@H](Cc1ccc(OP(=O)(O)O)cc1)C(=O)O; Cbz = O=C(OCc1ccccc1)*; Bn = c1ccc(C*)cc1; NHNH2 = NN*

Biological target: T1, rat brain farnesyl protein transferase (Rattus norvegicus, UniProt Q02293+Q04631)
T1 construct: 40-fold purified rat brain farnesyl protein transferase; from tissue; host or cells: rat brain
Assay: PFT inhibitory activity assay (radiolabeled farnesyl pyrophosphate, biotinylated peptide substrate, streptavidin beads)
Type: biochemical
Details: 40-fold purified enzyme; 30 mM potassium phosphate buffer, pH 7.4; 37°C for 30 minutes; farnesyl pyrophosphate 0.12 µM, (biotinyl)-Ahe-Tyr-Lys-Cys-Val-Ile-Met 0.1 µM
Experimental: The PFT inhibitory activity of compounds of Formula I was assayed in 30 mM potassium phosphate buffer, pH 7.4, containing 7 mM DTT, 1.2 mM MgCl2, 0.1 mM leupeptin, 0.1 mM pepstatin, and 0.2 mM phenylmethylsulfonyl fluoride. Assays were performed in 96 well plates (Wallec) and employed solutions composed of varying concentrations of a compound of Formula I in 100% DMSO. Upon addition of both substrates, radiolabeled farnesyl pyrophosphate ([1-^3H], specific activity 15-30 Ci/mmol, final concentration 0.12 µM) and (biotinyl)-Ahe-Tyr-Lys-Cys-Val-Ile-Met peptide (final concentration 0.1 µM), the enzyme reaction was started by addition of 40-fold purified rat brain farnesyl protein transferase. After incubation at 37°C for 30 minutes, the reaction was terminated by diluting the reaction 2.5-fold with a stop buffer containing 1.5 M magnesium acetate, 0.2 M H3PO4, 0.5% BSA, and strepavidin beads (Amersham) at a concentration of 1.3 mg/mL. After allowing the plate to settle for 30 minutes at room temperature, radioactivity was quantitated on a microBeta counter (model 1450, Wallec).

Row | SMILES | IC50
1 | C[C@@H](NC(=O)[C@H](Cc1c[nH]c2ccccc12)NC(=O)[C@H](COCc1ccccc1)NC(=O)[C@H](Cc1ccc(O)cc1)NC(=O)[C@H](Cc1c[nH]cn1)NC(=O)OCc1ccccc1)C(N)=O [Cbz-His-Tyr-Ser(OBn)-Trp-DAla-NH2, Cbz-His-Tyr-Ser(OBn)-Trp-D-Ala- NH2] (Cbz-HYS(Bn)W[dA]-NH2) | 40 nM
2 | C[C@@H](NC(=O)[C@H](Cc1c[nH]c2ccccc12)NC(=O)[C@H](COCc1ccccc1)NC(=O)[C@H](Cc1ccc(OP(=O)(O)O)cc1)NC(=O)[C@H](Cc1c[nH]cn1)NC(=O)OCc1ccccc1)C(N)=O [Cbz-His-Tyr(OPO3H2)-Ser(OBn)-Trp-DAla- NH2] (Cbz-H[pY]S(Bn)W[dA]-NH2) | 9 nM
3 | C[C@@H](NC(=O)[C@H](Cc1c[nH]c2ccccc12)NC(=O)[C@H](COCc1ccccc1)NC(=O)[C@H](Cc1ccc(OCc2ccccc2)cc1)NC(=O)[C@@H](Cc1c[nH]cn1)NC(=O)OCc1ccccc1)C(N)=O [Cbz-DHis-Tyr (OBn)-Ser(OBn)-Trp-DAla-NH2, Cbz-D-His-Tyr(OBn)-Ser(OBn)-Trp-D-Ala- NH2] (Cbz-[dH]Y(Bn)S(Bn)W[dA]-NH2) | 120 nM
4 | C[C@@H](NC(=O)[C@H](Cc1c[nH]c2ccccc12)NC(=O)[C@H](COCc1ccccc1)NC(=O)[C@H](Cc1ccc(OCc2ccccc2)cc1)NC(=O)[C@H](Cc1c[nH]cn1)NC(=O)OCc1ccccc1)C(=O)O [Cbz-His-Tyr(OBn)-Ser(OBn)-Trp-DAla- OH, Cbz-His-Tyr(OBn)-Ser(OBn)-Trp-D-Ala] (Cbz-HY(Bn)S(Bn)W[dA]-OH) | 48 nM
5 | C[C@H](NC(=O)[C@H](COCc1ccccc1)NC(=O)[C@H](Cc1ccc(OCc2ccccc2)cc1)NC(=O)[C@H](Cc1c[nH]cn1)NC(=O)OCc1ccccc1)C(=O)N[C@H](C)C(N)=O [Cbz-His-Tyr (OBn)-Ser(OBn)-Ala-DAla-NH2, Cbz-His-Tyr(OBn)-Ser(OBn)-Ala-D-Ala- NH2] (Cbz-HY(Bn)S(Bn)A[dA]-NH2) | 330 nM
6 | COC(=O)[C@@H](C)NC(=O)[C@H](Cc1c[nH]c2ccccc12)NC(=O)[C@H](COCc1ccccc1)NC(=O)[C@H](Cc1ccc(OCc2ccccc2)cc1)NC(=O)[C@H](Cc1c[nH]cn1)NC(=O)OCc1ccccc1 [Cbz-His-Tyr(OBn)-Ser(OBn)-Trp-DAla-OMe, Cbz-His-Tyr(OBn)-Ser(OBn)-Trp-D-Ala-OMe] (Cbz-HY(Bn)S(Bn)W[dA]-OMe) | 19 nM
7 | C[C@@H](NC(=O)[C@H](Cc1c[nH]c2ccccc12)NC(=O)[C@H](COCc1ccccc1)NC(=O)[C@H](Cc1ccc(OCc2ccccc2)cc1)NC(=O)[C@H](Cc1c[nH]cn1)NC(=O)OCc1ccccc1)C(=O)NN [Cbz-His-Tyr(OBn)-Ser(OBn)-Trp-D-Ala- NHNH2] (Cbz-HY(Bn)S(Bn)W[dA]-NHNH2) | 62 nM
8 | CCNC(=O)[C@@H](C)NC(=O)[C@H](Cc1c[nH]c2ccccc12)NC(=O)[C@H](COCc1ccccc1)NC(=O)[C@H](Cc1ccc(OCc2ccccc2)cc1)NC(=O)[C@H](Cc1c[nH]cn1)NC(=O)OCc1ccccc1 [Cbz-His-Tyr(OBn)-Ser(OBn)-Trp-DAla- NHEt, Cbz-His-Tyr(OBn)-Ser(OBn)-Trp-D-Ala- NHEt] (Cbz-HY(Bn)S(Bn)W[dA]-NHEt) | 230 nM
9 | COC(=O)[C@H](Cc1c[nH]c2ccccc12)NC(=O)[C@H](COCc1ccccc1)NC(=O)[C@H](Cc1ccc(OCc2ccccc2)cc1)NC(=O)[C@H](Cc1c[nH]cn1)NC(=O)OCc1ccccc1 [Cbz-His-Tyr(OBn)-Ser(OBn)-Trp- OMe, N-[N-[N-[N-[(Phenylmethoxy)carbonyl]-L-histidyl]-O-(phenylmethyl)-L-tyrosyl]-O-(phenylmethyl)-L-seryl]-L-tryptophan, methyl ester] (Cbz-HY(Bn)S(Bn)W-OMe) | 115 nM

Further molecules by falling IC50, results first:

Row | IC50 | SMILES
10 | 1800 nM | C[C@@H](NC(=O)[C@H](Cc1c[nH]c2ccccc12)NC(=O)[C@H](CO)NC(=O)[C@H](Cc1ccc(OCc2ccccc2)cc1)NC(=O)[C@H](Cc1c[nH]cn1)NC(=O)OCc1ccccc1)C(N)=O [Cbz-His-Tyr(OBn)-Ser-Trp-DAla-NH2, Cbz-His-Tyr(OBn)-Ser-Trp-D-Ala- NH2] (Cbz-HY(Bn)SW[dA]-NH2)
11 | 83 nM | NC(=O)[C@H](Cc1c[nH]c2ccccc12)NC(=O)[C@H](COCc1ccccc1)NC(=O)[C@H](Cc1ccc(OCc2ccccc2)cc1)NC(=O)[C@H](Cc1c[nH]cn1)NC(=O)OCc1ccccc1 [Cbz-His-Tyr(OBn)-Ser(OBn)-Trp-NH2, Cbz-His-Tyr(OBn)-Ser(OBn)-Trp- NH2] (Cbz-HY(Bn)S(Bn)W-NH2)
12 | 39 nM | C[C@@H](NC(=O)[C@H](Cc1c[nH]c2ccccc12)NC(=O)[C@H](COCc1ccccc1)NC(=O)[C@@H](Cc1ccc(OCc2ccccc2)cc1)NC(=O)[C@H](Cc1c[nH]cn1)NC(=O)OCc1ccccc1)C(N)=O [Cbz-His-DTyr(OBn)-Ser(OBn)-Trp-DAla-NH2, Cbz-His-D-Tyr(OBn)-Ser(OBn)-Trp-D-Ala- NH2] (Cbz-H[dY](Bn)S(Bn)W[dA]-NH2)
13 | 17 nM | C[C@@H](NC(=O)[C@H](Cc1c[nH]c2ccccc12)NC(=O)[C@H](COCc1ccccc1)NC(=O)[C@H](Cc1ccc(OCc2ccccc2)cc1)NC(=O)[C@H](Cc1c[nH]cn1)NC(=O)OCc1ccccc1)C(N)=O [Cbz-His-Tyr(OBn)-Ser(OBn)-Trp-DAla- NH2, Nα-[N-[N-[N-[N-[(Phenylmethoxy)carbonyl]-L-histidyl]-O-(phenylmethyl)-L-tyrosyl]-O-(phenylmethyl)-L-seryl]-Ltryptophyl]-D-alaninamide] (Cbz-HY(Bn)S(Bn)W[dA]-NH2)
14 | 15 nM | C[C@H](NC(=O)[C@H](Cc1c[nH]c2ccccc12)NC(=O)[C@H](COCc1ccccc1)NC(=O)[C@H](Cc1ccc(OCc2ccccc2)cc1)NC(=O)[C@H](Cc1c[nH]cn1)NC(=O)OCc1ccccc1)C(N)=O [Cbz-His-Tyr(OBn)-Ser(OBn)-Trp-Ala-NH2, Cbz-His-Tyr(OBn)-Ser(OBn)-Trp-Ala- NH2] (Cbz-HY(Bn)S(Bn)WA-NH2)
15 | 10 nM | C[C@@H](NC(=O)[C@H](Cc1c[nH]c2ccccc12)NC(=O)[C@H](COCc1ccccc1)NC(=O)[C@H](Cc1ccccc1)NC(=O)[C@H](Cc1c[nH]cn1)NC(=O)OCc1ccccc1)C(N)=O [Cbz-His-Phe-Ser(OBn)-Trp-DAla-NH2, Cbz-His-Phe-Ser(OBn)-Trp-D-Ala- NH2] (Cbz-HFS(Bn)W[dA]-NH2)
16 | 4 nM | C[C@@H](NC(=O)[C@H](Cc1c[nH]c2ccccc12)NC(=O)[C@H](CS)NC(=O)[C@H](Cc1ccc(OCc2ccccc2)cc1)NC(=O)[C@H](Cc1c[nH]cn1)NC(=O)OCc1ccccc1)C(N)=O [Cbz-His-Tyr (OBn)-Cys-Trp-DAla-NH2] (Cbz-HY(Bn)CW[dA]-NH2)
